According to patent publication US8734863B2, “Bioactive fraction of Petiveria alliacea, pharmaceutical composition containing same, and combination with immunostimulants for treating cancer” (Pontificia Universidad Javeriana, priority 2009, dated 2014):

Legend:
tumor cell line A375 = assay: Cell cycle distribution, propidium iodide flow cytometry; assay type: cell-based, human; conditions: A375, F4 at 31.2 μg/mL; 18% in no treatment cells
Procedure: After treatment, cells were washed and fixed with ethanol (ice-cold 70%) during 18 h. After fixing, cells were suspended in PBS 1×, 100 U/ml RNase, 50 μg/ml of propidium iodide (Sigma, St. Louis, Mo.) and incubated at room temperature for 30 min. Cell DNA content was measured by flow cytometry using a FACScalibur, (Becton Dickinson, Fullerton, Calif. For cytometric data 50,000 cellular events were collected per sample and analyzed with Cell Quest software (Becton Dickinson). Cell cycle distribution percentages are calculated by Modfit LT software. FACScalibur calibration is performed with the DNA QC Particle Kit (Becton Dickinson).

[1] = test system: human peripheral blood mononuclear cells (PBMC); assay: Growth of human mononuclear cells, MTT; assay type: cell-based; conditions: PBMC with or without phytohemagglutinin, 30 h, F4 250 to 1.9 μg/ml
Procedure: For assays in normal cells, human peripheral blood mononuclear cells (PBMC) from healthy volunteers were separated by density gradient centrifugation (Ficoll-Hypaque, Amersham, Biosciences). PBMC were suspended in RPMI-1640 supplemented medium (10% FBS, 2 mM L-glutamine, 100 U/ml penicillin, 100 μg/ml streptomycin, 0.01 M Hepes) and incubated under humidified environment at 37° C. and 5% CO2.
Human PBMC were seeded (2×10^5 cells/well) on 96-well plates and incubated with or without phytohemagglutinin (PHA, GibcoBRL) for 12 h. Afterwards, PBMC were treated with F4 fraction (250 to 1.9 μg/ml), or vincristine for 30 h. After treatment cells were centrifuged, F4 fraction removed and lastly cells were carefully washed 3 times (PBS) before adding the MTT. Next 12 μl of MTT 12 mM [3-(4,5-dimethylthiazol-2-yl)-2,5-diphenyl tetrazolium bromide] (Molecular Probes, Eugene, Oreg., USA) in PBS was added to each well and incubated for 4 h at 37° C. Formazan crystals were dissolved with SDS-HCl 0.01M. MTT results were read at 540 nm in a Multiskan MCC/340 (LabSystems).

tumour cell line NB4 = assay: Chromatin condensation and nuclear fragmentation, hematoxylin-eosine and DAPI staining; assay type: cell-based, human; conditions: NB4, 24 h; S3 at 31.2 μg/mL
Procedure: Hematoxylin-eosine and DAPI (4′,6-diamidino-2-phenylindole, Sigma) stained cells were monitored under microscope to evaluated the type of cell death induced by the S3 fraction. In brief, cells treated with S3 fraction for 24 h at 37° C. under humidified atmosphere and 5% CO2, were plated onto microscope slides by cytocentrifugation (Vybra cytospin, Japan) for 5 min at 500 rpm, fixed with ethanol and stained with hematoxylin (2 min) and eosin (45 seconds). Excess dye was removed with ethanol (3 washes) and microscope slides were monitored and photographed under a light microscope (Olympus CH30, Japan) at a magnification of 100×. For DAPI staining, cells plated on glass cover slides (13 mm/-E) previously collagen-precoated (6-10 μg/cm2) at a density of 5×10^4 cells for 16 h, were treated with S3 fraction at 37° C. under humidified atmosphere and 5% CO2 for 24 h. Subsequently, cells were washed (PBS) and fixed with paraformaldehyde (2% in PBS) for 30 min at 4° C. After washing twice with PBS-BSA (1%), cells were incubated in cold acetone (1 min); washed (1% PBS-BSA) and incubated for 5 min with DAPI 300 nM (Sigma, St. Louis, Mo.). Slides with prolong antifade kit (Molecular Probes) were observed under a fluorescence microscope (Olympus, Japan).

Compound | G2 phase accumulation (tumor cell line A375) [%] | effect over growth of normal mononuclear cells [1] | type of cell death, hematoxylin-eosine staining (tumour cell line NB4)
CC[C@]1(O)C[C@H]2CN(CCc3c([nH]c4ccccc34)[C@@](C(=O)OC)(c3cc4c(cc3OC)N(C=O)[C@H]3[C@@](O)(C(=O)OC)[C@H](OC(C)=O)[C@]5(CC)C=CCN6CC[C@]43[C@@H]65)C2)C1 [vincristine] | ~80 | lack of effect | 
CN[C@@H]1C[C@H]2O[C@@](C)([C@@H]1OC)n1c3ccccc3c3c4c(c5c6ccccc6n2c5c31)C(=O)NC4 [staurosporine] |  |  | nuclear fragmentation and DNA fragmentation
